According to patent US20250122193A1, “NOVEL PYRIDOCARBAZOLIUM COMPOUNDS AND MEDICAL USES THEREOF” (MyCural Therapeutics, priority 2021, published 2025):

How the values were obtained:
FRA1:JUN interaction = target: T1, FRA1:JUN interaction (Homo sapiens, UniProt P05412+P15407); experiment: in situ proximity ligation assay (isPLA), FRA1:JUN; format: cell-based; details: 5 μM, 24 hours, MCF-7 cells
T1 construct: endogenous in cells; host or cells: MCF7

MYC protein [1] = target: MYC protein (Homo sapiens, UniProt P01106); experiment: steady state MYC protein level by western blot; format: cell-based; details: for MYC protein level: 17 hours, 5 μM
Chain of MYC protein (Homo sapiens, UniProt P01106) (P01106 16-454): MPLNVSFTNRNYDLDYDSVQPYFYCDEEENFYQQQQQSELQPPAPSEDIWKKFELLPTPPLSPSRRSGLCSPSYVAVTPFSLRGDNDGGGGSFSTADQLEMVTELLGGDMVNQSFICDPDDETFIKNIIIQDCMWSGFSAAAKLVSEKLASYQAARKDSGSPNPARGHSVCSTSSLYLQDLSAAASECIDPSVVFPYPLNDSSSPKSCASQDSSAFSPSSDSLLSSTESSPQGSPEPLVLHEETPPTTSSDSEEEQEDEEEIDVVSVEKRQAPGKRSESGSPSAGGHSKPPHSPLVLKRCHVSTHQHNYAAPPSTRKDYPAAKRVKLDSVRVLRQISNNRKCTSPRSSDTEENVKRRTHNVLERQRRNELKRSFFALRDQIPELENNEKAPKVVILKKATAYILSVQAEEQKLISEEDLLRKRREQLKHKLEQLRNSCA
Experimental: (§1) FIG. 2: MYCMI-7 downregulates MYC and MYCN protein expresión. A) Steady state levels of MYC protein in MCF7 cells after 17 hours exposure to indicated concentrations MYCMI-7 or ellipticine B) MYC mRNA expression in MCF7 cells after treatment with MYCMI-7 for various time points. C) Steady state levels of MYC protein in different HCT116 cell lines (WT, FBW7−/− or p53−/−) after 17 hours exposure to 5 μM MYCMI-7. Endogenous MYC was immunoprecipitated and detected by western blot analysis. D) Cycloheximide (CHX) chase in HCT116 cells. Cells were subjected to 5 μM MYCMI-7 30 min prior cycloheximide addition. Cells were harvested after the indicated time points, MYC was immunoprecipitated using N262 antibody and the MYC levels analyzed using western blot (C33 antibody). E) CHX chase after MYCMI-7 treatment performed as in (D) using Fbxw7-deficient HCT116 cells. F) Stable expression of wt, T58A or S62A MYC in HO15.19 MYC−/− cells. The cells were treated with 5 μM MYCMI-7 overnight, and MYC expression was analyzed by western blot. G) Cartoon showing a linear structural representation of wt MYC and indicated mutants. H-J) Expression of MYC mutants after MYCMI-7 treatment. COS-7 cells were transfected with CMV-driven vectors containing HA-tagged wt MYC or mutants for 24 hrs and treated with 5 μM MYCMI-7 for 17 hrs. The DN (H) and DC (I) MYC mutants encodes the C-terminal and N-terminal halves of the MYC protein, respectively. DBr (J) lacks the DNA-binding basic region of the protein. A-J). Representative western blots out of at least three experiments are shown.
(§2) For western blot equal amounts of proteins ([…]) were separated on a 4-12% SDS-PAGE gel. Proteins were transferred to Immobilion-P membrane (Millipore) and detected by immunostaining and chemoluminescence (Immobilion western HRP substrate; Millipore). For immunoprecipitations 500-1000 μg of protein was used. […] Briefly, cells were crosslinked with 1% formaldehyde on ice for 6 minutes. Nuclear chromatin was sonicated on ice to fragments from 0.3 kb to 0.5 kb. Nuclear chromatin equivalent to 2.5×10^7 cells was immunoprecipitated with 2 μg antibody.

MYC protein [2] = experiment: steady state MYC protein level by western blot; format: cell-based; details: reconstituted HO15.19 MYC knockout Rat1 cells, 5 μM overnight
Experimental: as §1, §2

[3] = test system: normal human peripheral blood lymphocytes; experiment: apoptosis assay (Cell Death Detection ELISA), peripheral blood lymphocytes; format: cell-based; details: 5 μM, 24 and 48 hours
Experimental: FIG. 4: MYCMI-7 induces apoptosis in malignant cells and growth arrest in normal cells. A) Cell cycle distribution analysis by flow cytometry of MYC-regulated P493-6 cells and normal rat embryo fibroblasts (REFs). Left panel, P493-6 synchronized in G0 by 24 hours treatment of […] doxycycline. Doxycycline was removed and the cells were harvested 48 hours after the addition of fresh medium containing DMSO or 5 μM MYCMI-7. Right panel, flow cytometry analysis of normal REFs treated with DMSO or 5 μM MYCMI-7. B) Apoptosis assay using the Cell Death Detection ELISA^plus kit. Left panel, immortalized Rat1 fibroblasts with different MYC status after 24 hours of 5 μM MYCMI-7 treatment, middle panel and right panels, normal REFs and normal peripheral blood lymphocytes, respectively, after 24 and 48 hours of 5 μM MYCMI-7 treatment. C) Measurement of viability and apoptosis by Apo-Tox Glo Triplex assay in A375 melanoma cells after 3 days of treatment with MYCMI-7 with the indicated concentrations. […] E) NHDFs treated with 3 μM MYCMI-7 for 72 hrs. Viability was measured by trypan blue exclusion assay. F) Cell growth measured with Cyt62 assay of primary normal human epidermal melanocytes (NHEM) treated for 72 hours with MYCMI-7, G) Viability measured by trypan blue exclusion assay of NHEM after treatment for 72 hours with MYCMI-7.

Recombinant human Top2a = Recombinant human Top2a (Homo sapiens, UniProt P11388); experiment: Top2 decatenation assay; format: biochemical; details: in vitro decatenation of kDNA
Chain of Recombinant human Top2a (P11388 whole entry): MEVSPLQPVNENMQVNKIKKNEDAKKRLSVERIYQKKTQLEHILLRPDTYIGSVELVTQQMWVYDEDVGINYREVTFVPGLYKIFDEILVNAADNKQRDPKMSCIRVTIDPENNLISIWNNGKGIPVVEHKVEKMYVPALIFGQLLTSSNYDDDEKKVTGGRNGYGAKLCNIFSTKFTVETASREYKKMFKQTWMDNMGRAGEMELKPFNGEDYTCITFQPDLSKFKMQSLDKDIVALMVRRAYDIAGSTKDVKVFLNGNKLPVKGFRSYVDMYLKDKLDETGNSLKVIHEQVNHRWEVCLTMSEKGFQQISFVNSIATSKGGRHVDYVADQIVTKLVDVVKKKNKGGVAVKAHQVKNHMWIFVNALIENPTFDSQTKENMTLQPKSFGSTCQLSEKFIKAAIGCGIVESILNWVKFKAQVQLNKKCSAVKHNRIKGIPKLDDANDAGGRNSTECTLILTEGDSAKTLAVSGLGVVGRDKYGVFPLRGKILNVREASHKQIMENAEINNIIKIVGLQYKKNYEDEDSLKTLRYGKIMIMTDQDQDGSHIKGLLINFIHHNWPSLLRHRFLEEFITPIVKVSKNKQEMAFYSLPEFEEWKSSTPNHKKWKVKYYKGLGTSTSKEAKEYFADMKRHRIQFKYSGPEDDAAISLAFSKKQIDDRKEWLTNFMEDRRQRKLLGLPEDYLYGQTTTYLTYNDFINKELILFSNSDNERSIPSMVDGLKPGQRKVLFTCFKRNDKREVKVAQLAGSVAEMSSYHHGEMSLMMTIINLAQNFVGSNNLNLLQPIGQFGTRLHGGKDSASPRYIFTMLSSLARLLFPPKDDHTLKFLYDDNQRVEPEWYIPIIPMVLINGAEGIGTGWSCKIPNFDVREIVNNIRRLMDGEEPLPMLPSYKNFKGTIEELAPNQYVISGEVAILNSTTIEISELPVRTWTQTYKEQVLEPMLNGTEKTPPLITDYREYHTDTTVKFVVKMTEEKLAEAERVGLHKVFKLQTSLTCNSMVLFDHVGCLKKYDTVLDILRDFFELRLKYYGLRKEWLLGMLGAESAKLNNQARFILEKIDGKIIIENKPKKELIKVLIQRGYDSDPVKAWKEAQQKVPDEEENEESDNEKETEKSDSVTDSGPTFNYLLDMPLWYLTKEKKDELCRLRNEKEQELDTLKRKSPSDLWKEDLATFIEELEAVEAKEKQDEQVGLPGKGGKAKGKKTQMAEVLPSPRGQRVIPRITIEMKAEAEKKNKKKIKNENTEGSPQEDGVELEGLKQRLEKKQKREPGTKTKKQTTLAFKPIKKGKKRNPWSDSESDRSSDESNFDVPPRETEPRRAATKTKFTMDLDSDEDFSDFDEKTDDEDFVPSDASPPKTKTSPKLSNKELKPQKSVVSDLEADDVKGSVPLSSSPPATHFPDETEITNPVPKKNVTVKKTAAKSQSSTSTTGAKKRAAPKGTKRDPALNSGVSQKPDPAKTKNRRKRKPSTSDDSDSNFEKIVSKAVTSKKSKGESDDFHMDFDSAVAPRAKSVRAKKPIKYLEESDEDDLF
Experimental: Top2 decatenation assay: Recombinant human Top2a (15 nM) was incubated with 80 ng catenated kinetoplast DNA (Topogen, TG2013) in Top2 reaction buffer (50 mM Tris pH8, 150 mM NaCl, 10 mM MgCl2, 0.5 mM DTT, 30 μg/ml BSA) with 1-100 μM of either doxorubicin, MYCMI-7, ellipticine or camptothecin for 10 minutes at 37° C. Drug dilutions were made in a DMSO/H2O solution so that a final concentration of 1% DMSO was consistent across all samples. The reaction was stopped with the addition of SDS to a final concentration of 1% and the Top2a was digested by Proteinase K at 55° C. for 10 minutes. DNA was purified by phenol:chloroform extraction before running on a 1% agarose gel either containing or post-stained with 0.5 μg/ml ethidium bromide. The decatenated products were quantified, normalised to the Top2α+DMSO control and plotted using GraphPad Prism.
First, we utilized an in vitro TOP2A decatenation assay. TOP2 enzymes decatenate kinetoplast DNA (kDNA) converting a network of interlocking DNA rings into individual rings that can be separated by agarose gel electrophoresis.

cyclin E = cyclin E protein expression; format: cell-based
Experimental: as §2

[4] = test system: MYC/BCL-XL-driven acute myeloblastic leukemia
Experimental: A) Schematic plan of the experiment B) Flow cytometry analysis of GFP^+ leukemic blasts in bone marrow on day 11 (n=5), day 15 (n=5), and at the end point (n=9) after daily i.p. injection of 12.5 mg/kg MYCMI-7, compared with vehicle (n=3) mice. C). H&E and MYC immunohistochemistry (IHC) stainings of spleen sections at the endpoint. Images were taken at 10× magnification. D) quantification of MYC IHC stainings of spleen sections at the endpoint. E) Western blot analysis of cleaved caspase 3 and H3K9me3 expression in spleens at endpoint after treating mice with MYCMI-7 or vehicle (3 mice from each condition). Actin was used as loading control. At the end points, the last injection was done 3 hrs before sacrifice.
3×10^5 cells were injected into each recipient C57BL mouse after irradiation (600 rad). AML-like leukemia initiation was confirmed via flow cytometry and Giemsa staining, at day 8 after transplantation. MYCMI-7 were then administrated intraperitoneally daily at a dose of 12.5 mg/kg. Liver, spleen and bone marrow were extracted at day 11, 15 and endpoint for measurement. In addition, body weight of mouse in each group was also collected every 4th day until the endpoint of the experiment.
We next investigated potential anti-tumor effects of MYCMI-7 in vivo. […] The mice were then sacrificed according to scheme illustrated in FIG. 7A.

[5] = intracerebroventricular injection, toxicity; details: highest concentration (10 μM)
Excerpt: First, we performed a pharmacokinetic study of the behavior of the molecule in mice.

[6] = endpoint, compared with vehicle

T1 sequence (P15407 whole entry): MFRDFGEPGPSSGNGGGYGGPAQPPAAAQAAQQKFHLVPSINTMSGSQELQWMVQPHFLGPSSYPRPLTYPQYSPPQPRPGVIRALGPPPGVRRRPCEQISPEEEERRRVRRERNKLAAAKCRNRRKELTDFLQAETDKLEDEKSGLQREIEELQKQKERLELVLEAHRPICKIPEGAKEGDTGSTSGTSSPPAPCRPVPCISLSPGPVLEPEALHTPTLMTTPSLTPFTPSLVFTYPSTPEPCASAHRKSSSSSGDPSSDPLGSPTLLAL
T1 sequence (P05412 whole entry): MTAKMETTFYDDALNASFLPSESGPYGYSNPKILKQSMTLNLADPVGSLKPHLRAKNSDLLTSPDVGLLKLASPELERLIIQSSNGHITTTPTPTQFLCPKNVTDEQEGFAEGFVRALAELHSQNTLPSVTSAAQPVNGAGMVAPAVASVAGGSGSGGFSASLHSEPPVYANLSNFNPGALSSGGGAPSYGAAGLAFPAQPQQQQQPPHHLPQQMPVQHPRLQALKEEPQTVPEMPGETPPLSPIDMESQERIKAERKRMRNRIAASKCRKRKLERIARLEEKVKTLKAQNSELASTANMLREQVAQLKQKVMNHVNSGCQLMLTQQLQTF

CCN(CC)CC[n+]1ccc2c(C)c3[nH]c4ccccc4c3c(C)c2c1 [MYCMI-7, 2-(5,11-Dimethyl-6H-25-pyrido[4,3-b]carbazol-2-yl)-N,N-diethylethanamine bromide]
inhibition of FRA1:JUN interaction (isPLA) (FRA1:JUN interaction): not | phosphorylation of MYC at Thr-58 or Ser-62 (MYC protein [1]): did not increase | MYC protein level (MYC protein [1]; FBXW7−/− HCT116 cells): unaffected | steady state level of MYC protein (MYC protein [1]; MCF7 cells, 17 hrs, 5 μM MYCMI-7): decreased drastically | MYC protein level (MYC protein [1]; wt and p53 null HCT116 cells): strongly reduced | levels of wt, T58A and S62A MYC (MYC protein [2]): reduced the levels of both wt and the MYC mutants | apoptosis [3]: did not induce apoptosis | concentration at which TOP2A inhibition starts (Recombinant human Top2a): higher than 10 μM | concentration of complete TOP2A inhibition (Recombinant human Top2a): 100 µM | protein expression of cyclin E (cyclin E): unaffected | body weight ([4]; 12.5 mg/kg daily i.p.): retained their weight | mouse survival ([4]; 12.5 mg/kg daily i.p.): no significant difference | side effects ([4]; 12.5 mg/kg daily i.p.): no signs of severe side effects | GFP positive leukemic cells in bone marrow ([4]; 12.5 mg/kg daily i.p., day 15): undetectable | leukemic cells in bone marrow ([4]; 12.5 mg/kg daily i.p., end point (20+/−4 days)): around 10% | spleen structure ([4]; endpoint, compared to vehicle): retained a more normal spleen structure | MYC expression in leukemic cells (IHC) [4, 6]: strongly reduced | cleaved caspase 3 and H3K9me3 in leukemic spleens (western blot) [4, 6]: increased expression | toxicity after intracerebroventricular injection [5]: no signs of toxicity
